# Assays:
# anthrax [1] = test system: anthrax; set-up: species or system human
# [2] = test system: Bacillus anthracis spores; settings: rhesus monkey, in vivo; cited from earlier work
# inhalational anthrax = settings: human, in vivo; cited from earlier work
# [3] = test system: gram positive and negative bacteria; settings: human, in vivo; cited from earlier work
# anthrax [4] = assay: microbe, parasite or virus in culture; type: cell-based; settings: Bacillus anthracis, read-out: MIC against anthrax, mid point adopted in the models
# [5] = test system: most other infectious organisms; settings: in vivo; cited from earlier work
smiles,measurement,setting,value
O=C(O)c1cn(C2CC2)c2cc(N3CCNCC3)c(F)cc2c1=O [ciprofloxacin],drop of mortality rate,anthrax [1],2 folds
same,reduction of mortality rate with optimized regimens compared to currently recommended regimens,anthrax [1],up to 2 folds
same,protection from the disease,[2],adequately protected from the disease
same,survival rate of ciprofloxacin-treated animals,[2],90%
same,overall survival of the US patients,inhalational anthrax,55%
same,survival rate of anthrax patients treated with the drug,inhalational anthrax,50˜60%
same,MIC range of the bacteria in the literature study,[3],0.008 to 0.4 µg/mL
same,time to complete bacteria eradication,[3],more than 10 days
same,MIC,anthrax [4],0.07 µg/mL
same,effectiveness against most other infectious organisms,[5],over 80%

# — patent US6503906B1 (priority 2002, dated 2003)
